Data published in ChEMBL document CHEMBL4052658, “BACE1 inhibitory activity and molecular docking analysis of meroterpenoids from Sargassum serratifolium” (Bioorg Med Chem, 2017).
Active and inactive are the calls of the source. The rule behind the calls is not given here.

Assays:
[1] = target: T1, Beta-secretase 1 (Homo sapiens, UniProt P56817); assay: Mixed type inhibition of recombinant human BACE1 using Rh-EVNLDAEFK-Quencher as substrate after 60 mins by Dixon plot analysis
[2] = target: T1, Beta-secretase 1; assay: Inhibition of recombinant human BACE1 using Rh-EVNLDAEFK-Quencher as substrate after 60 mins by FRET assay
[3] = target: Acetylcholinesterase (Electrophorus electricus, UniProt O42275); assay: Inhibition of electric eel AChE using acetylthiocholine iodide as substrate incubated for 15 mins by spectrophotometric analysis
Chain of Acetylcholinesterase (O42275 whole entry): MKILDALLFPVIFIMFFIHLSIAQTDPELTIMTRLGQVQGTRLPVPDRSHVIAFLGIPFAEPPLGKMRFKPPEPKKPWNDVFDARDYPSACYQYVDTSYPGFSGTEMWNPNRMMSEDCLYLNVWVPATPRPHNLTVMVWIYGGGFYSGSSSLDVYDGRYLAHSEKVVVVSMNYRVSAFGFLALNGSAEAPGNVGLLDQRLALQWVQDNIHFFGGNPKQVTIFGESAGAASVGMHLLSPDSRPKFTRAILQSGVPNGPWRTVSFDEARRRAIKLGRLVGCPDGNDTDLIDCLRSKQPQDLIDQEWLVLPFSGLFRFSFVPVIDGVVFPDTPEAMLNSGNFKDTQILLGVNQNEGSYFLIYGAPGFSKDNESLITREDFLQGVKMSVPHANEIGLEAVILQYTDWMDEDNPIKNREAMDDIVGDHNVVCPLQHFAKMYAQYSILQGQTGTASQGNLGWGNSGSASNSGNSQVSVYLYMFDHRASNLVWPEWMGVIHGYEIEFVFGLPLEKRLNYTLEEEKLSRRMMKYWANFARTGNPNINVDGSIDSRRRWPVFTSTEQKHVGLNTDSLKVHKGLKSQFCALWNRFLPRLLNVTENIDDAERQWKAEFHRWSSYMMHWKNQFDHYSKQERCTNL

[4] = target: Cholinesterase (Equus caballus, UniProt P81908); assay: Inhibition of equine serum BChE using butyrylthiocholine chloride as substrate incubated for 15 mins by spectrophotometric analysis
Chain of Cholinesterase (P81908 whole entry): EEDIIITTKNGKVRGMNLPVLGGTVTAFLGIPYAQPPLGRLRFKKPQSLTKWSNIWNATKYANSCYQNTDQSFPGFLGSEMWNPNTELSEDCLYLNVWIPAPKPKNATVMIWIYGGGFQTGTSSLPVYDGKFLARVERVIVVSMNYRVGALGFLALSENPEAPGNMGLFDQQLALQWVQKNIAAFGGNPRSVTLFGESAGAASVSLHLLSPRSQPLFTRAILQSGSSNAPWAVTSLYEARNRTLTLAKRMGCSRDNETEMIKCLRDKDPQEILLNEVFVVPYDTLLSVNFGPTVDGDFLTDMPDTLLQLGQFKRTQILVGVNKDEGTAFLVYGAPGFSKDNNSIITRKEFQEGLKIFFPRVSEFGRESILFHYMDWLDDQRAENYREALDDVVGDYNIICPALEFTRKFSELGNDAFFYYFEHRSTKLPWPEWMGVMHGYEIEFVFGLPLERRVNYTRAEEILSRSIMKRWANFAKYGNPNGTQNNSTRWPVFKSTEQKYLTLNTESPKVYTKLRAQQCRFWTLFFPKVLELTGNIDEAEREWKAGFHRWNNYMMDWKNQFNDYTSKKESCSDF

[5] = target: T1, Beta-secretase 1; assay: Noncompetitive inhibition of recombinant human BACE1 using Rh-EVNLDAEFK-Quencher as substrate after 60 mins by Lineweaver-Burk plot analysis
[6] = target: T1, Beta-secretase 1; assay: Noncompetitive inhibition of recombinant human BACE1 using Rh-EVNLDAEFK-Quencher as substrate after 60 mins by Dixon plot analysis

T1 sequence (P56817 whole entry): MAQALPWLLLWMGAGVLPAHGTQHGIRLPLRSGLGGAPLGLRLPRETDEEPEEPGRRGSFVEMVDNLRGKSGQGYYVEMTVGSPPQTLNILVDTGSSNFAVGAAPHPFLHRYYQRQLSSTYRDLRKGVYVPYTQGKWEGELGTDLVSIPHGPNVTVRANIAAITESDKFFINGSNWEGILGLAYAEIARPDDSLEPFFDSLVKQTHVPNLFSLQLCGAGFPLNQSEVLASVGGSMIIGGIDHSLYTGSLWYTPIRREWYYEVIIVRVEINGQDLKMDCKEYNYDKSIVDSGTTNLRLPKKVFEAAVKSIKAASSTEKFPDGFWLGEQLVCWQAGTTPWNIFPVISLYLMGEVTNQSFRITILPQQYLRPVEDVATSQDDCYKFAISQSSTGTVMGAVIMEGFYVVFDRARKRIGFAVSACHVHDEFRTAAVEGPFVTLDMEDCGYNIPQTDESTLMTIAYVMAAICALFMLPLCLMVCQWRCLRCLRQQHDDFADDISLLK

Compound | Ki [1] [µM] | IC50 [2] [µM] | IC50 [3] [µM] | IC50 [4] [µM] | inhibition [5] | Ki [6] [µM]
CC(C)=CCC/C(=C/CC/C(C)=C/CC/C(C)=C/Cc1cc(O)cc(C)c1O)C(=O)O [SARGAHYDROQUINOIC ACID] | 1.6 | 4.4 | 124 | 15.2 | – | –
CC(C)=CCC/C(=C/CC/C(C)=C/CCC1(C)C=Cc2cc(O)cc(C)c2O1)C(=O)O (stereo not drawn) | – | 7 | 97.3 | 9.4 | Active | 2.9
COc1ccc2cc3[n+](cc2c1OC)CCc1cc2c(cc1-3)OCO2 [BERBERINE] | – | – | 1.6 | – | – | –
CC(C)=CCC/C(=C/CC/C(C)=C/CC/C(C)=C/CC1=CC(=O)C=C(C)C1=O)C(=O)O | 4 | – | 69.3 | 10.5 | – | –
